This is an account of results in patent US11103526B2, “Methods for treatment using small molecule potassium-sparing diuretics and natriuretics” (University of Pittsburgh—Of the Commonwealth System of …, priority 2016, dated 2021).

Each structure is given as a SMILES string.

The nature of data set [1]: Protocol 2: renal microdialysate and urine levels after intravenous bolus (Example 12). Particulars: after 33.5 μmoles/kg intravenous bolus.
Description: Rats were prepared in a similar fashion to that described in Protocol 1, but with modifications. Specifically, microdialysis probes were inserted into the cortex and medulla of the right kidney and were perfused at 2 μl/min with 0.9% saline. The microdialysis probes used in this protocol were from Bioanalytical Systems (West Lafayette, Ind.; CMA/20 microdialysis probe 4 mm; outer diameter of 0.5 mm; 20,000 dalton membrane cut-off). After initiating the probe perfusions, the infusion rate of 0.9% saline via the jugular vein was reduced to 25 μl/min to avoid volume overload. The rats then stabilized for two hours for the kidney to recover from the trauma induced by the probe insertions.
Next, microdialysate from the renal cortex and medulla as well as urine were collected for 30 minutes, and MABP and HR were time averaged during this first (basal) period. Rats were then randomized to receive 8-aminoguanosine, 8-aminoguanine, or vehicle using the dose and manner described for Protocol 1. Ten minutes after the treatments, microdialysate from the renal cortex and medulla as well as urine were again collected for 30 minutes, and MABP and HR were time averaged during this treatment period. After 15 minutes, this procedure was repeated. 8-Aminoguanosine and 8-aminoguanine were measured in urine and microdialysate using ultra-performance liquid chromatography-tandem mass spectrometry (LC-MS/MS) as described below.
Assay for 8-Aminoguanosine and 8-Aminoguanine. The purines in the urine and microdialysate were measured by LC-MS/MS using a method similar to a previously described method (Jackson et al., J Biol Chem 284:33097-33106, 2009), but with modifications. Purines were separated using reversed-phase ultra-performance liquid chromatography (Waters UPLC BEH C18 column, 1.7 μm beads; 2.1×150 mm; Milford, Mass.) and quantified by selected reaction monitoring using a triple quadrupole mass spectrometer (TSQ Quantum-Ultra; ThermoFisher Scientific, San Jose, Calif.) with a heated electrospray ionization source. The mobile phase included a linear gradient flow rate (300 uL/min) of 1% acetic acid in water (pH, 3; mobile phase A) as well as 100% methanol (mobile phase B) and was delivered with a Waters Acquity ultra-performance liquid chromatographic system. […]
Microdialysis probes were inserted into the renal cortex and medulla of anesthetized rats; the rats stabilized for 2 hours and were then administered an intravenous bolus of vehicle (control group), 8-aminoguanosine (33.5 μmoles/kg), or 8-aminoguanine (33.5 μmoles/kg). The levels of these compounds were then measured in the renal cortex and medulla as well as in the urine using LC-MS/MS.
The subject of data set [2] is anesthetized rats. The data set can be described thus: Protocol 3: intrarenal artery infusion, ipsilateral versus contralateral kidney (Example 13). Type of data set: in vivo, male Sprague-Dawley rats. Particulars: for MABP / renal blood flow (RBF) / urinary excretion of glucose, ipsilateral versus contralateral kidney / urinary excretion of potassium, ipsilateral versus contralateral kidney / urinary excretion of sodium, ipsilateral versus contralateral kidney / urine volume, ipsilateral versus contralateral kidney: intrarenal artery infusion 0.1, 0.3 and 1 μmoles/kg/min; for urinary excretion of glucose, ipsilateral versus contralateral kidney / urinary excretion of potassium, ipsilateral versus contralateral kidney / urinary excretion of sodium, ipsilateral versus contralateral kidney / urine volume, ipsilateral versus contralateral kidney: same time period. Here is the method: Protocol 3. Rats were prepared similar to the Protocol 1 description, but with a few additions. For this protocol, PE-10 cannulas were inserted into both the left and right ureters for simultaneous urine collection from both kidneys. A 1 mm transit-time flow probe was also positioned on the left renal artery and connected to a flowmeter (model T-206, Transonic Systems, Inc., Ithaca, N.Y.) to continuously measure renal blood flow (RBF). As placing a flow probe on left renal artery partially denervates the kidney, both kidneys were denervated to ensure similar conditions for both kidneys. Finally, a 30-gauge needle was inserted into the lumen of the left renal artery, and an infusion of 0.9% saline at 50 μl/min was initiated.
After stabilization for one hour, urine was collected from both kidneys for 15 minutes (for urine volume, sodium, potassium, and glucose), and MABP as well as HR were time averaged during this period. In addition, RBF was recorded 5, 10, and 15 minutes into the 15-minute urine collection period and averaged. Next, the rats received an infusion into the left renal artery of 8-aminoguanine or 8-aminoguanosine at 0.1 μmoles/kg/min and 50 μl/min or of vehicle at 50 μl/min. After 10 minutes, urine was again collected for 15 minutes, and all measurements were repeated. In rats receiving 8-aminoguanine or 8-aminoguanosine, the dose of these compounds was increased to 0.3 μmoles/kg/min. After 10 minutes, urine was again collected for 15 minutes, and all measurements were repeated. The procedure was repeated once more after the dose of 8-aminoguanosine or 8-aminoguanine was increased to 1 μmole/kg/min. Sodium, potassium, and glucose were measured in all urine samples as described in Protocol 1.
Increasing doses (0, 0.1, 0.3, and 1.0 μmoles/kg/min) of 8-aminoguanosine and 8-aminoguanine were infused into the left renal artery of anesthetized rats, while MABP and RBF were monitored. The urine volume and urinary excretion of sodium, potassium, and glucose were also measured from both the infused (treated; ipsilateral) and non-infused (within animal control; contralateral) kidneys. A control group was also included with the vehicle alone infused into the left kidney.

Data set [3] concerns RBCs from SCD patients (HbSS). The data set can be described thus: Hypoxia-induced sickling of RBCs from SCD patients. Format: cell-based, human. Here is the method: In addition to causing PH in SCD patients and HIV-infected patients, the contribution of PNPase to RBC sickling in SCD patients was assessed. Fresh RBCs were obtained from two adult SCD patients (HbSS); the RBCs were diluted in F-10 HAM buffer to a final hematocrit of 4%. Next, glucose was added for a final concentration of 5.5 mmol/L, and the samples were incubated at room air/temperature in 12-well plates. The RBCs were then treated with either vehicle, 8-aminoguanosine (2 μmol/L), inosine (2 μmol/L), or an 8-aminoguanosine and inosine combination. After 1.5 hours, the RBCs were placed in a hypoxic glove box and maintained under hypoxia (5% 02) for 3 hours, while undergoing mild agitation. At the end of incubation, to prevent reoxygenation-derived morphological changes, the RBCs were fixed under hypoxic conditions in the hypoxic glove box. The samples were assayed for percent sickling.

For data set [4], the system named is Sugen 5416+hypoxia-induced PH. The data set can be described thus: Sugen 5416+hypoxia-induced angioproliferative pulmonary hypertension. Type of data set: in vivo, female Sprague Dawley rats. The conditions noted are these: 30 mg/kg/day in drinking water. From the text: A total of 36 female Sprague Dawley rats were used to determine whether administration of the PNPase inhibitor 8-aminoguanosine attenuates development of angioproliferative PH in animals with Sugene5416+hypoxia-induced PH. The animals were randomly assigned to receive subcutaneous injection of vehicle [(control group; n=8; 0.5% (w/v) carboxymethylcellulose sodium, 0.9% (w/v) sodium chloride, 0.4% (v/v) polysorbate 80, and 0.9% (v/v) benzyl alcohol in deionized water] or subcutaneous injection of SU5416 20 mg/kg (n=16; SU+Hx group). A subset of the SU5416-treated animals received 8-aminoguanosine (30 mg/kg/day in drinking water (n=12; 8-amino-guanosine group). On day 0, all SU5416-treated animals (SU+Hx and 8-aminoguanosine groups) were exposed to chronic hypoxia for 3 weeks. The animals were placed into normobaric plexiglas chambers (BioSpherix, Redfield, N.J., USA). The chambers were continuously flushed with nitrogen to maintain 10% oxygen and low CO2 concentrations (<0.5%) with the O2 and CO2 concentrations continuously monitored (PROOX110, BioSpherix oxygen controller and LB-2 CO2 analyzer, Sensormedics). At day 21, the animals were returned to a normoxic environment. Three weeks later (day 42), the animals were anesthetized and instrumented for RVPSP measurements. A PE-240 polyethylene catheter was inserted into the trachea to facilitate breathing, and the SPR-513 catheter (Millar Instruments) was inserted into right jugular vein and advanced into RV for RVPSP measurements. After 20-30-minutes of stabilization, RVPSP was recorded over 20 minutes. The animals were euthanized by anesthetic overdose, and the heart and lungs were collected for morphometric analyses.

In the case of `Nc1nc2[nH]c(N)nc2c(=O)[nH]1` [8-aminoguanine, 8-Aminoguanine], in data set [1] (microdialysate), the “interstitial levels of 8-aminoguanine in the renal cortex” value is “immediate, sustained, similar, and large increases”; the “interstitial levels of 8-aminoguanine in the renal medulla” value was “immediate, sustained, similar, and large increases”. Moreover, in data set [1] (urine), the “urinary levels of 8-aminoguanine” value is “immediate, sustained, similar, and large increases”; the “urinary levels of 8-aminoguanosine” value was “did not affect”. In addition, in data set [2], the MABP result is reported as “did not affect”; the “renal blood flow (RBF)” value is on record as “did not affect”; the “urinary excretion of glucose, ipsilateral versus contralateral kidney” value is listed as “significantly higher”; the “urinary excretion of potassium, ipsilateral versus contralateral kidney” value is “did not differ significantly”. In data set [2], the “urinary excretion of sodium, ipsilateral versus contralateral kidney” value is “significantly higher” and the “urine volume, ipsilateral versus contralateral kidney” value is recorded as “significantly higher”. For the same compound, the “urine, sodium, and glucose excretion by the contralateral kidney” value in data set [2] (intrarenal artery infusion at 1 μmole/kg/min, compared with the basal level) is recorded as “slightly increased”. Further, the “excretion of urine, sodium, or glucose by the contralateral kidney” value in data set [2] (intrarenal artery infusion at 0.1 and 0.3 μmoles/kg/min) is listed as “no effect”.
Regarding `Nc1nc2c(nc(N)n2[C@@H]2O[C@H](CO)[C@@H](O)[C@H]2O)c(=O)[nH]1` [8-aminoguanosine, 8-Aminoguanosine], in data set [3] (2 μmol/L, 1.5 hours pre-incubation, then hypoxia for 3 hours), the “hypoxia-induced sickling of RBCs” value is listed as “significantly reduced”. Also, in data set [3] (8-aminoguanosine (2 μmol/L) combined with inosine (2 μmol/L)), the “effect on the inhibitory effects of inosine on hypoxia-induced sickling” value is listed as “potentiated”. Further, in data set [2], the MABP result was “did not affect”; the “renal blood flow (RBF)” value is recorded as “did not affect”; the “urinary excretion of glucose, ipsilateral versus contralateral kidney” value is reported as “no significant differences”; the “urinary excretion of potassium, ipsilateral versus contralateral kidney” value is “significantly lower”. In data set [2], the “urinary excretion of sodium, ipsilateral versus contralateral kidney” value is recorded as “no significant differences” and the “urine volume, ipsilateral versus contralateral kidney” value was “no significant differences”. Further, in data set [4] (day 42), the Fulton index result is reported as “decreased”, the RV contractility result is “improved”, the “RV end diastolic pressure (RV EDP)” value was “decreased” and the “right ventricular peak systolic pressure (RVPSP)” value is given as “significantly reduced”. Further, in data set [4] (histopathology), the “grade 6 necrotizing arteritis lesions” value is “prevented sporadic occurrence”, the occlusive vascular lesions result is “reduced the number” and the plexiform vascular lesions entry was “reduced the number”.
